In patent publication US20020076693A1, “Novel cell surface receptor for HIV retroviruses, therapeutic and diagnostic uses” (priority 1997, published 2002):

Tests used:
[1] = tested on: HIV-1 AZT resistant, Saquinavir resistant, Nevirapine resistant; assay: Entry of HIV-1 isolates resistant to antiviral drugs into HeLa cells (β-galactosidase); type: cell-based; settings: heparin 5 mg/ml
Protocol: HIV entry and replication, results in the activation of the HIV LTR, leading to the expression of the lacZ gene. Therefore, at 24 and 48 hours post-infection, the β-galactosidase activity could be measured in cell extracts directly. Consequently, this latter technique could be used to monitor HIV entry into cells. The HIV dose used corresponded to the amount of virus containing 20-40 ng/ml of p24.
In these experiments, the background values of the β-galactosidase activity were assesed by the samples incubated with the a-CD4 mAb. Furthermore, the effect of heparin (5 mg/ml) was investigated.

[2] = tested on: V3 loop-BPs (nucleolin, PHAP II, PHAP I); assay: BIAcore biosensor binding to immobilized V3 loop-BPs; design: species or system human
[3] = tested on: CEM cells; assay: FACS binding of labeled TASP constructs to the cell-surface ligand; design: species or system human; settings: biotin-labeled constructs, dose for 50% labeling, read-out: Affinity to bind TASP-ligand (EC50), 50% effective dose
Excerpt: The cells were then washed twice with FACS buffer and fixed in 1% formaldehyde in FACS buffer. […] The fluorescence intensity was monitored by FACS analysis using Lysis II Software in FIGS. 3/4 and Tables 1/2, or Cell Quest™ Software (Beckton Dickinson and Apple Computer) in FIG. 5 +L.

[4] = tested on: HIV-1 Bal; assay: Infection of human monocyte-derived macrophages by HIV-1 (p24); type: cell-based; settings: HIV-1 BaL (TASP also Ada); p24 in supernatant
Protocol: Macrophages are infected with BaL or Ada HIV-1 viruses, in the presence of 2 μM, 1 μM or 0.1 μM of 5[Kψ (CH2N)PR]-TASP. Cells are preincubated during 30 min at 4° C. in the presence of 5[Kψ (CH2N)PR]-TASP before adding the virus. Every 3 days interval, the whole culture supernatant is collected and is replaced by RPMI 1640 culture medium supplemented with 20% fetal calf serum (FCS), 1% antibiotics, 1% glutamine, in addition to 5[Kψ (CH2N)PR]-TASP that is kept present in the culture medium until day 14 after in vitro infection. Virus production is quantitated by titration of p24 protein in the culture supernatant at different times (days) after in vitro infection. Each value represented in the graphs represents the mean of two test samples.
Macrophages are infected by the BaL VIH-1 virus in the presence of 100 μg/ml of anti-P95, anti-P40 and anti-P30 antibody. Cells are preincubated during 30 min at 4° C. in the presence of each kind of antibody before adding the virus. The antibodies are kept present in the culture medium during the whole infection period of time. […]
Cells are preincubated during 30 min at 4° C. in the presence of the different molecules either alone or in association before adding the virus. […] Virus production is quantitated by titration of p24 protein in the culture supernatant at different times (days) after in vitro infection. […]

[5] = tested on: CD4^+ CEM cells; assay: Binding of 125I-labeled gp120 to CEM cells; design: species or system human
Protocol: A. The binding of ^125I-labeled gp120 to CEM cells. […] The cells were then washed as described in “Materials and Methods” and processed for analysis of the bound gp120.
Recombinant gp120 (Neosystem, Strasbourg, France) was radioiodinated with the Bolton-Hunter reagent (New England Nuclear-Du Pont, Boston, Mass.) according to the technique described by the manufacturer. To study the binding of gp120 to the CD4 receptor, CEM cells (5×10^6) which express high levels of CD4 were incubated in the culture medium with ^125I-labeled gp120 (50 ng; 10 Ci/mg) at 37° C. for 1 hour. Cells were then washed twice in PBS (5 ml) and cytoplasmic extracts were prepared by disruption of cell pellets in buffer E ([…]). Aliquots ([…]; corresponding to material from 10^6 cells) were diluted in two-fold concentrated electrophoresis buffer and were analyzed by SDS/PAGE. […] The ^125I-labeled gp120 band was also quantitated in a Phosphorimager (Molecular Dynamics, Sunnyvale, Calif.).

[6] = target: P40/PHAPII (Homo sapiens, UniProt Q01105); assay: Saturation of binding sites of P40/PHAPII
[7] = tested on: HIV-1 Lai; assay: HIV entry into HeLa P4 / P4-C5 cells (β-galactosidase activity), HIV-1 Lai; type: cell-based
[8] = tested on: HIV-1 Lai; assay: Binding of HIV particles to CEM cells (cell-associated p24); type: cell-based; settings: 37° C., 1 hour; TASP 10 mM, mAb OKT4A 10 μg/ml, mAb anti-CD4 5 μg/ml, rabbit antibodies 100 μg/ml
Protocol: B. The binding of HIV particles to CEM cells. […] The binding of HIV particles was estimated as described in “Materials and Methods”. The ordinate gives the concentration of p24 associated with the cells, i.e. particles bound on the cell surface as well as particles (or cores) entered into cells. Each value represents the mean of two identical samples. Similar results were obtained in two other indepenent experiments.
CEM cells (5×10^6) were first preincubated (15 min, 37° C.) in the absence (Control) or presence of mAb anti-CD4 CB-T4 (5 μg/ml; histogram a-CD4), rabbit peptide purified antibodies against nucleolin, PHAP II and PHAP I at 100 μg/ml, or combination of antibodies as shown (at the same concentrations as when used alone) before the addition of HIV-1 Lai (material corresponding to 5 ng of p24), and further incubation at 37° C. for 1 hr. The cells were then washed and cell extracts were prepared to estimate the amount of HIV binding to cells (HIV bound on the surface+HIV entered into cells). The amount of virus particles was estimated by measuring the concentration of p24. The experimental conditions were as described previously (Krust et al., 1993; Callebaut et al., 1997b).
After incubation at 37° C. for 1 hour with gentle shaking, cells were diluted 10 fold in the culture medium and pelleted by centrifugation. […]

[9] = binding protein(s) V3 loop-BPs, BIAcore

Sequence of P40/PHAPII (Q01105 1-277 isoform Q01105-2): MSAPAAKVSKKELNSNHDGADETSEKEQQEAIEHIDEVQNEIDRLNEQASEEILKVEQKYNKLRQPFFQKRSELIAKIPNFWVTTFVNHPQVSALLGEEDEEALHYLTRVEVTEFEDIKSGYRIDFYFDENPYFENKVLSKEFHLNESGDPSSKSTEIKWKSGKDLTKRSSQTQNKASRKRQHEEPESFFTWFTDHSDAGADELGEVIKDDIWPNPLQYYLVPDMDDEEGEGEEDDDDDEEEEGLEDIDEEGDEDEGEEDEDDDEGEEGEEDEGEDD

5[Kψ(CH2N)PR]-TASP
effect on entry of drug-resistant HIV-1 isolates [1]: Inhibits Entry
Ka (equilibrium affinity constant) [2, 9]: 9.61e+09 M⁻¹
ka (association rate constant) [2, 9]: 37.50 × 10^5 M^−1S^−1
kd (dissociation rate constant) [2, 9]: 0.39 × 10^−3 S^−1
equilibrium affinity constant Ka ([2]; binding to the V3 loop-BPs): 9.6e+09 M⁻¹
EC50 [3]: 150 nM
effect on infection of human macrophages by HIV-1 [4]: inhibits, in a dose-dependent manner
binding of 125I-labeled gp120 to CEM cells ([5]; 20 mM of TASP): not affected
binding of 125I-labeled gp120 to CEM cells ([5]; higher concentrations of TASP (40, 80 μM)): slight inhibition
concentration for 100% saturation of the binding sites [6]: 4 µM
inhibition of viral entry monitored by β-galactosidase activity in HeLa/CD4^+ cells ([7]; 5-10 μM): at least 90%
inhibition of HIV-1 LAI infection in HeLa cells ([7]; 37° C. in culture medium, 0.1-1 μM): more than 90%
inhibition of binding of HIV particles to CEM cells [8]: 78%
